Laboratory results taken from BindingDB's records for doi:10.1021/np030086k (University of Mississippi, 2003).

Assay: Inhibition of LFA1:CD11a/CD18/ICAM1-mediated human HL60 cell adhesion to human HeLa cells expressing ICAM1 by fluorescence analysis

| SMILES | IC50 |
| --- | --- |
| CC[C@H]1CN2CCc3cc(OC)c(OC)cc3[C@@H]2C[C@@H]1C[C@H]1NCCc2cc(OC)c(OC)cc21 [6',7',10,11-tetramethoxyemetan] | > 104 µM |
| CC[C@H]1CN2CCc3cc(OC)c(OC)cc3[C@@H]2C[C@@H]1C[C@H]1NCCc2cc(O)c(OC)cc21 [CHEBI:3533] | > 21.4 µM |
| C=C1[C@@H](C)[C@H]2[C@H](Cc3ccccc3)NC(=O)[C@]23OC(=O)/C=C/[C@H](O)CCC[C@@H](C)C/C=C/[C@H]3[C@@H]1O [CHEBI:23527] | 11.4 µM |
